Here are results for five molecules from US20140199277A1, “Methods of Treatment of Retinal Degeneration Diseases” (priority 2011, published 2014).

In assay [1] the test system is human GSK-3. To be noted: cited from earlier work.
The subject of assay [2] is retinal neurons. Description: Damage-dependent cell fusion in vivo after intravitreal transplantation in R26Y eyes. Also noted: species or system mouse. Particulars: NMDA-damaged eyes of R26Y mice. The method, then:
(§1) Mice at the age of 3 months were anaesthetised by injection of ketamine: metomidine (80 mg/kg: 1.0 mg/kg, intraperitoneal (i.p.)). To induce retinal damage, the animals were treated intravitreally with 2 μl of 20 mM N-methyl-D-aspartate (NMDA) (total 40 nmol; Sigma) for 24 h [Timmers et al., Mol Vis 7, 131-137 (2001)]. Control eyes received 2 μl PBS. For the BrdU incorporation assays, the mice received intraperitoneal (i.p.) BrdU administration of 50 mg/kg body weight.
Retinal stem and progenitor cells (RSPCs) were isolated from the ciliary margin of adult Cre mice as previously described [Sanges et al., Proc Natl Acad Sci USA 103, 17366-17371 (2006)]. […]
(§2) Tissues were fixed by immersion in 4% paraformaldehyde overnight, and then embedded in OCT compound (Tissue-Tek). Horizontal serial sections of 10 μm thickness were processed for immunohistochemistry, and visualisation of Nanog-GFP and Rosa26-YFP fluorescence was performed by fluorescent microscopy.
(§3) Percentages of GFP and YFP positive cells were evaluated counterstaining the tissue sections with DAPI (Vectashield, Vector Laboratories, Burlingame, Calif., USA), and they were photographed using either an Axioplan microscope (Zeiss) or a Leica laser confocal microscope system.
The numbers of immunoreactive or of Nanog-GFP- and -YFP-positive cells within three different retinal areas (40× field) were counted in individual sections. […]

Assay [3] deals with Nanog-GFP transgene. Description: In-vivo reprogramming of retinal neurons after fusion, Nanog-GFP-puro mice. Particulars: for GFP-positive cells after transplantation of pretreated ESCs: ESCs pretreated before transplantation, NMDA-injured eyes. Further details: species or system mouse. Here is the method:
as §1
(§4) The stem cells (SCs) were left non-treated or were pretreated with 100 ng/ml Wnt3a or 1 μM BIO, for 24 h, and finally 5×10^5 cells were injected intravitreally into the eyes of the anaesthetised mice. The mice were sacrificed by cervical dislocation, and their eyeballs were enucleated for histological analyses.
as §2, §3
(§5) The numbers of immunoreactive or of Nanog-GFP- and -YFP-positive cells within three different retinal areas (40× field) were counted in individual sections. A total of ten serial sections were examined for each eye, from at least three different mice. For statistical analysis, the data were expressed as means±SEM, as pooled from at least three independent experiments, each carried out in duplicate. The experiments were performed using at least three different mice. Differences were examined using the unpaired Student t-test.

Assay [4] concerns Nestin-CRE transgene. Put plainly: Endogenous BM cell fusion-mediated reprogramming induced by intravitreal BIO in Nestin-Cre mice with BM^R26Y. It is filed as in vivo, mouse. Particulars: 24 h. The method, then:
BM transplantation was conducted as previously reported with minor modifications. The BM of 4- to 6-week-old R26Y or Nestin-Cre recipient mice was reconstituted with BM cells from the tibias and femurs of RFP/CRE or R26Y transgenic mice respectively. BM cells (1×10^7 cells) were injected intravenously into the recipients 3 hours after irradiation with γ-rays (9 Gy). The eyes of the recipients were protected with lead shields to prevent radiation-induced damage (radiation retinopathy). Four weeks after transplantation, the peripheral blood of chimeric mice was extracted from the tail vein, and the reconstituted BM was assessed.
For fluoresceine immunostaining, the primary antibodies used were: anti-Nanog (1:200, R&D), anti-Oct4 (1:100, AbCam), anti-Nestin (1:300, Abcam), anti-GATA4 (1:500, Abcam), anti-Otx2 (1:200, Abcam), anti-Noggin (1:200, Abcam), anti-Hand1 (1:400, Abcam), anti-Tuj-1 (1:100, Abcam), anti-Thy1.1 (1:100, Abcam), anti-syntaxin (1:50, Sigma), anti-glutamine synthetase (Sigma, 1:100) anti-Annexin V (1:200, Abcam), anti-Ki67 (Sigma, 1.100) and anti-BrdU (1:300, Sigma). The secondary antibodies used were: anti-mouse IgG and anti-rabbit IgG antibodies conjugated with Alexa Fluor 488, Alexa Fluor 546 or Alexa Fluor 633 (1:1000; Molecular Probes, Invitrogen).
as §5

Assay [5] has as its system β-catenin signalling. Put plainly: Activation of β-catenin signalling in treated HSPCs (RT-PCR of Axin2, nuclear translocation of β-catenin). It is filed as cell-based, mouse. The source says:
According to Treatment A, activation of the Wnt/β-catenin signalling pathway is, at least partially, provided by the implanted cells having their Wnt/β-catenin signalling pathway activated and being selected from the group consisting of a hematopoietic stem cell, a progenitor cell, and a mesenchymal stem cell. The subject to be treated may also have activated the Wnt/β-catenin signalling pathway after retinal damage or injury. In general, the Wnt/β-catenin signalling pathway is activated when the target genes are transcribed; by illustrative, activation of the Wnt/β-catenin signalling pathway may be confirmed by conventional techniques, for example, by analyzing the expression of the target genes, e.g., Axin2, by means known by the skilled person in the art to analyze the expression of genes, such as, for example, RT-PCR (reverse transcription-polymerase chain reaction), or by detection of β-catenin translocation in the nuclei of the cells by conventional techniques, such as, for example, by immunostaining, or by detecting the phosphorylation of Dishevelled or the phosphorylation of the LRP tail, etc.
The stem cells (SCs) were left non-treated or were pretreated with 100 ng/ml Wnt3a or 1 μM BIO, for 24 h, and finally 5×10^5 cells were injected intravitreally into the eyes of the anaesthetised mice. […]

The test system of assay [6] is neural progenitor cells. Particulars: cited from earlier work; for reprogramming of neural precursor cells after cell fusion: periodic activation of the Wnt/β-catenin pathway in ESCs.
Assay [7] relates to Nestin-CRE transgene. Put plainly: In-vivo reprogramming of retinal neurons after fusion, Nestin-CRE mice. Further details: species or system mouse. Particulars: injected immediately after NMDA, HSPCs after 24 h. Here is the method:
as §1, §4, §2
Percentages of GFP and YFP positive cells were evaluated counterstaining the tissue sections with DAPI (Vectashield, Vector Laboratories, Burlingame, Calif., USA), and they were photographed using either an Axioplan microscope (Zeiss) or a Leica laser confocal microscope system. […]

The test system of assay [8] is β-catenin. Put plainly: β-catenin immunofluorescence in retinal sections of NMDA-treated eyes. It is filed as in vivo, mouse. Particulars: NMDA-damaged eyes. Here is the method: FIG. 12. Analysis of reprogramming of retinal neurons after fusion. (A) Immunofluorescence staining using an anti β-catenin antibody (red) was performed on sections from eyes treated either with NMDA, with both NMDA and DKK1 or untreated as control. The expression and nuclear accumulation of β-catenin in retinal cells detected in NMDA-damaged eyes (red arrows) is reduced after treatment with DKK1. Scale bar: 20 μm. (B) Schematic representation of in-vivo reprogramming experimental plan. Red-labelled SPCs either non-treated (control), or treated for 24 h with BIO were injected in NMDA-damaged or undamaged eyes of Nanog-GFP-Puro recipient mice. The expression of GFP in reprogrammed hybrids was analysed one day after injection. […] Nuclei were counterstained with DAPI.
To assess the role of activation of the endogenous Wnt/β-catenin signalling pathway in the reprogramming of retinal neurons, in both of these mouse models, DKK1 was also injected immediately after NMDA injection; DKK1 is an inhibitor of the Wnt/β-catenin pathway [Osakada et al. (2007) cited supra, FIG. 12A]. HSPCs were transplanted after 24 h, and mice were sacrificed 24 h later.

As to `Nc1nc(NCCNc2ncc(-n3ccnc3)c(-c3ccc(Cl)cc3Cl)n2)ccc1[N+](=O)[O-]` [CHIR 98014, 6-pyridinediamine, N6-[2-[[4-(2,4-dichlorophenyl)-5-(1H-imidazol-1-yl)-2-pyrimidinyl]amino]ethyl]-3-nitro-], the “inhibition of human GSK-3” value in assay [1] is given as “potently”.
Take `O=C1Nc2cc(Br)ccc2/C1=C1/Nc2ccccc2/C1=N\O` [BIO, 6-bromoindirubin-3'-oxime]: in assay [2], the “effect of pre-treatment on fusion efficiency of HSPCs, ESCs or RSPCs” value was “did not enhance the fusion efficiency”. The “GFP-positive cells after transplantation of pretreated ESCs” value in assay [3] is “strikingly increased”. In assay [4] (NMDA+BIO intravitreal), the “YFP-positive hybrids Annexin-V positive” value came out at 1%, the “YFP-positive hybrids positive for Ki67” value is given as “About 8%”, the “YFP-positive hybrids positive for Nanog” value amounted to 70% and the “YFP-positive hybrids positive for Oct4” value was found to be 50%. Besides, the “YFP-positive cells in the gcl and inl” value in assay [4] (intravitreal with NMDA) was “observed”. Besides, the “β-catenin signalling in HSPCs” value in assay [5] is recorded as “activates β-catenin signalling”. In assay [6] (in vitro), the “fusion efficiency of ESCs with neural progenitor cells” value is “does not increase the fusion efficiency”. The “reprogramming of neural precursor cells after cell fusion” value in assay [6] is recorded as “strongly enhances”.
Consider `Cc1c[nH]c(-c2cnc(NCCNc3ccc(C#N)cn3)nc2-c2ccc(Cl)cc2Cl)n1` [CHIR 99021, 6-{2-[4-(2,4-dichloro-phenyl)-5-(4-methyl-1H-imidazol-2-yl)-pyrimidin-2-ylamino]-ethylamino}-nicotinonitrile], for which the “inhibition of human GSK-3” value in assay [1] is recorded as “potently”.

B1: Wnt3a: Wnt protein isoform, Wnt/β-catenin signalling pathway activator (protein, UniProt P56704 19-352, looked up)
Protein Wnt-3a: SYPIWWSLAVGPQYSSLGSQPILCASIPGLVPKQLRFCRNYVEIMPSVAEGIKIGIQECQHQFRGRRWNCTTVHDSLAIFGPVLDKATRESAFVHAIASAGVAFAVTRSCAEGTAAICGCSSRHQGSPGKGWKWGGCSEDIEFGGMVSREFADARENRPDARSAMNRHNNEAGRQAIASHMHLKCKCHGLSGSCEVKTCWWSQPDFRAIGDFLKDKYDSASEMVVEKHRESRGWVETLRPRYTYFKVPTERDLVYYEASPNFCEPNPETGSFGTRDRTCNVSSHGIDGCDLLCCGRGHNARAERRREKCRCVFHWCCYVSCQECTRVYDVHTCK
Consider B1, for which the “GFP-positive cells after transplantation of pretreated ESCs” value in assay [3] is “strikingly increased”. Further, the “reprogramming of neural precursor cells after cell fusion” value in assay [6] is “strongly enhances”.

B2: DKK1: an inhibitor of the Wnt/β-catenin pathway (protein, UniProt O94907 32-266, looked up)
Dickkopf-related protein 1: TLNSVLNSNAIKNLPPPLGGAAGHPGSAVSAAPGILYPGGNKYQTIDNYQPYPCAEDEECGTDEYCASPTRGGDAGVQICLACRKRRKRCMRHAMCCPGNYCKNGICVSSDQNHFRGEIEETITESFGNDHSTLDGYSRRTTLSSKMYHTKGQEGSVCLRSSDCASGLCCARHFWSKICKPVLKEGQVCTKHRRKGSHGLEIFQRCYCGEGLSCRIQKDHHQASNSSRLHTCQRH
Regarding B2, the “reprogramming of neuron-HSPC hybrids” value is given as “almost completely blocked” in assay [7] and “almost completely blocked” in assay [3] (injected immediately after NMDA, HSPCs after 24 h, Nanog-GFP-puro mice). Moreover, in assay [8], the “expression and nuclear accumulation of β-catenin in retinal cells” value is on record as “reduced”.
